These results are taken from patent publication US11414677B2, “Methods and compositions for performing continuous directed evolution” (Massachusetts Institute of Technology, priority 2017, dated 2022).

Data set [1] relates to tTAwt.mCherry adenovirus. In kind it is cell-based, Adenovirus type 5. As for the experimental part:
FIGS. 21A-21C. FIG. 21A. […] HEK293A cells stably encoding the gene for adenoviral protease (AdProt) under control of the endogenous tTA operator are infected by an initial ratio of 1:100 or 1:1,000 tTAwt.mCherry to tTAmut.GFP viruses. Viral media was serially passaged onto a new plate of cells for three rounds. The viral populations were then determined via flow cytometry. FIG. 21B. Quantification of flow cytometry data from the competition experiment. […] The initial ratio of the 1:1,000 sample (labeled N.D.; not detectable) was not experimentally quantifiable owing to the low amount of tTAwt.mCherry adenovirus present, and was therefore derived by dilution of the 1:100 initial ratio. For raw flow cytometry data, see FIG. 26 and FIG. 27. FIG. 21C. […]
Adenoviral titers were determined through flow cytometry. […] 2-3 days post-infection, cells were washed once with media, stained with 0.2 μg/mL DAPI, and then analyzed on a BD LSR II Analyzer for fluorescent protein expression. Infectious titers were determined by measuring the percentage of cells infected by a known volume of virus. To minimize counting cells that were infected by more than one virus and to minimize any background fluorescence, data were only considered if they fell within the linear range, which typically encompassed samples where 1-10% of cells were infected. […]

Data set [2] relates to tTAwt.mCherry adenovirus. Briefly: Doxycycline dose response of tTAwt.mCherry adenovirus titer in TRE3G.AdProt cells. To be noted: synchronous infection, various dox concentrations. In kind it is cell-based, Adenovirus type 5. As for the experimental part: FIG. 36. Dose response of tTA-mCherry titer when treated with doxycycline. […] Titer is given in “infectious units per mL” (IU/mL), which is defined as the number of viruses per mL that are able to elicit a fluorescent signal in cells when analyzed by flow cytometry.
A semi-confluent dish of TRE3G.AdProt cells (˜160,000 cells) (TABLE 13) was infected with tTAwt. mCherry adenovirus (multiplicity of infection ˜2.5) (TABLE 12). After 3 h, the cells were washed twice, and fresh tet-approved media (Takara Bio) supplemented with various concentrations of dox was added. 5 days later, the virus lysates were harvested and viral titers were analyzed by flow cytometry.

In data set [3] the test system is 1:10 mixture of tTA.mCherry.ΔAdPol.adenovirus and CFP.GFP.ΔAdPol.adenovirus. Briefly: Enrichment of tTA-expressing adenovirus by blasticidin selection in TRE3G.blastR cells. In kind it is cell-based, Adenovirus type 5. The note with it: 20 μM blasticidin, added 10 h post-infection. As for the experimental part:
FIG. 49. Enrichment of adenoviruses encoding positive BOI variants by antibiotic selection. TRE3G.blastR cells were infected with a 1:10 mixture of ΔAdPol.adenovirus encoding either tTA (+tTA) or CFP (−tTA) and treated with blasticidin 10 h post-infection. Two days post-infection, adenoviruses were harvested and titered by flow cytometry. Titers are given in infectious units per milliliter (IU/mL), defined as the volume of adenoviral supernatant required to induce fluorescence in a cell as analyzed by flow cytometry. Dashed line represents the limit of detection (L.O.D) of the assay. Titers below this limit are inaccurate due to the percentage of infected cells being below the 1% error threshold of flow cytometry.
A 1:10 mixture of tTA.mCherry.ΔAdPol.adenovirus and CFP.GFP.ΔAdPol.adenovirus (TABLE 16) was used to infect a 24-well plate of TRE3G.blastR cells (150,000 cells/well) (TABLE 17) at MOI=0.7, and blasticidin was added 10 h post-infection. Viral supernatants were harvested ˜48 h post-infection, and titered by flow cytometry as described above.

The subject of data set [4] is HEK293A cells. The data set is described as follows: Resazurin assay to assess acute toxicity of common tissue culture antibiotics. Format: cell-based, human. To be noted: two-day treatment. On the procedure: FIGS. 46A-46D. Resazurin assay to assess acute toxicity of common tissue culture antibiotics. HEK293A cells were treated for two days with either G418 (FIG. 46A), puromycin (FIG. 46B), blasticidin (FIG. 46C), or hygromycin (FIG. 46D), and cell viability was analyzed by resazurin fluorescence.
A 96-well plate was seeded with HEK293A cells (˜15,000) and treated with either puromycin HCl (Corning), Hygromycin B (Thermo Fisher), Blasticidin S HCl (Thermo Fisher), or G418 (Enzo). Two days later, 10 μL of 0.1 mg/mL resazurin (MilliporeSigma) was added and incubated for 1.5 h. Media was transferred to a fresh 96-well plate and fluorescence was analyzed on a Bio-Tek Synergy H1 Hybrid Microplate Reader.
In general terms: The colour change of resazurin is a common sign of viable cells or microbes.

The subject of data set [5] is ΔAdPol.adenovirus encoding either tTA or RFP. Briefly: tTA-induced resistance to antibiotic inhibition of adenoviral replication. To be noted: treatment 10 h post-infection. In kind it is cell-based, Adenovirus type 5. As for the experimental part:
FIGS. 48A-48D. tTA-induced resistance to antibiotic mediated inhibition of adenoviral infection. Either wild-type AdPol cells, TRE3G.puroR cells, or TRE3G.blastR cells were infected with ΔAdPol.adenovirus encoding either tTA (+tTA) or RFP (−tTA). Ten hours post-infection, wild-type AdPol cells were treated with either puromycin (FIG. 48A) or (FIG. 48B) blasticidin, TRE3G.puroR cells were treated with puromycin (FIG. 48C), and TRE3G.blastR cells were treated with blasticidin (FIG. 48D). After 2, days, the infections were harvested and titered by flow cytometry. Titers are given in infectious units per milliliter (IU/mL), defined as the volume of adenoviral supernatant required to induce fluorescence in a cell as analyzed by flow cytometry. Dashed line represents the limit of detection (L.O.D) of the assay. Titers below this limit are inaccurate owing to the percentage of infected cells being below the 1% error threshold of flow cytometry.
Either RFP.ΔAdPol.adenovirus, or tTA.mCherry.ΔAdPol.adenovirus (TABLE 16) was used to infect a 24-well plate of either wild-type AdPol cells, TRE3G.puroR cells, or TRE3G.blastR cells (150,000 cells/well) (TABLE 17) at MOI=1, and either puromycin or blasticidin was added 10 h post-infection. Viral supernatants were harvested ˜48 h post-infection, and titered by flow cytometry as described above.

In data set [6] the test system is RFP.ΔAdPol.adenovirus. Briefly: Time course of antibiotic inhibition of adenoviral replication. The note with it: treatment initiated 24 h post-infection. In kind it is cell-based, Adenovirus type 5. An excerpt: FIGS. 47A-47B. Time-course of antibiotic-mediated inhibition of adenoviral infection. HEK293A cells expressing wild-type AdPol were infected with RFP.ΔAdPol.adenovirus and treated with either a) puromycin, or b) blasticidin at various time points post-infection (h.p.i.=hours post-infection). After 2 days, the infections were harvested and titered by flow cytometry. Titers are given in infectious units per milliliter (IU/mL), defined as the volume of adenoviral supernatant required to induce fluorescence in a cell as analyzed by flow cytometry. Dashed line represents the limit of detection (L.O.D) of the assay. Titers below this limit are inaccurate due to the percentage of infected cells being below the 1% error threshold of flow cytometry.
RFP.ΔAdPol.adenovirus (TABLE 16) was used to infect a 24-well plate of wild-type AdPol cells (150,000 cells/well) (TABLE 17) at MOI=1, and either blasticidin or puromycin was added at various time points following the infection. Viral supernatants were harvested ˜48 h post-infection, and titered by flow cytometry as described above.

Data set [7] deals with AdGLΔPol adenoviral genome. The note with it: high fidelity deep sequencing by Sanjuán and co-workers (Risso-Ballester et al. 2016); cited from earlier work.

For the molecule `C[C@H]1c2cccc(O)c2C(=O)C2=C(O)[C@]3(O)C(=O)C(C(N)=O)=C(O)[C@@H](N(C)C)[C@@H]3[C@@H](O)[C@@H]21` [dox, doxycycline], the “decrease in viral titer” value in data set [1] is roughly 10 fold. Moreover, the “modulation of adenoviral titers” value in data set [2] is roughly 10 fold.

With `CN(CC[C@H](N)CC(=O)N[C@H]1C=C[C@H](n2ccc(N)nc2=O)O[C@@H]1C(=O)O)C(=N)N` [blasticidin], in data set [3], the “drop of CFP.ΔAdPol.adenovirus titer” value is listed as “over 100 fold” and the tTA.mCherry.ΔAdPol.adenovirus titer result is “remained steady”. Also, in data set [4], the “dynamic range of inhibitory concentrations” value is on record as “over two orders of magnitude”. For the same molecule, the “acute toxicity (cell viability by resazurin fluorescence)” value in data set [4] (various concentrations) was “completely toxic”. Besides, in data set [5] (TRE3G.blastR cell line), the “effect on RFP.ΔAdPol.adenovirus” value is on record as “still inhibited” and the “effect on tTA.ΔAdPol.adenovirus” value is reported as “completely resistant to blasticidin treatment”. Besides, in data set [5] (wild-type AdPol cell line), the “effect on ΔAdPol.adenovirus replication” value is “inhibited both RFP-expressing and tTA-expressing ΔAdPol.adenovirus replication”. For the same molecule, the “inhibition of adenoviral replication” value in data set [6] is listed as “Neither puromycin nor blasticidin were able to inhibit adenoviral replication”.

B1: AdPol: high fidelity wild-type adenovirus type-5 DNA polymerase (protein, UniProt P04495 1-1198, looked up)
DNA polymerase: MALVQAHRARRLHAEAPDSGDQPPRRRVRQQPTRAAPAPARARRRRAPAPSPGGSGAPPTSGGSPASPLLDASSKDTPAAHRPPRGTVVAPRGCGLLQAIDAATNQPLEIRYHLDLARALTRLCEVNLQELPPDLTPRELQTMDSSHLRDVVIKLRPPRADIWTLGSRGVVVRSTVTPLEQPDGQGQAAEVEDHQPNPPGEGLKFPLCFLVRGRQVNLVQDVQPVHRCQYCARFYKSQHECSARRRDFYFHHINSHSSNWWREIQFFPIGSHPRTERLFVTYDVETYTWMGAFGKQLVPFMLVMKFGGDEPLVTAARDLAANLGWDRWEQDPLTFYCITPEKMAIGRQFRTFRDHLQMLMARDLWSSFVASNPHLADWALSEHGLSSPEELTYEELKKLPSIKGIPRFLELYIVGHNINGFDEIVLAAQVINNRSEVPGPFRITRNFMPRAGKILFNDVTFALPNPRSKKRTDFLLWEQGGCDDTDFKYQYLKVMVRDTFALTHTSLRKAAQAYALPVEKGCCAYQAVNQFYMLGSYRSEADGFPIQEYWKDREEFVLNRELWKKKGQDKYDIIKETLDYCALDVQVTAELVNKLRDSYASFVRDAVGLTDASFNVFQRPTISSNSHAIFRQIVFRAEQPARSNLGPDLLAPSHELYDYVRASIRGGRCYPTYLGILREPLYVYDICGMYASALTHPMPWGPPLNPYERALAARAWQQALDLQGCKIDYFDARLLPGVFTVDADPPDETQLDPLPPFCSRKGGRLCWTNERLRGEVATSVDLVTLHNRGWRVHLVPDERTTVFPEWRCVAREYVQLNIAAKERADRDKNQTLRSIAKLLSNALYGSFATKLDNKKIVFSDQMDAATLKGITAGQVNIKSSSFLETDNLSAEVMPAFQREYSPQQLALADSDAEESEDERAPTPFYSPPSGTPGHVAYTYKPITFLDAEEGDMCLHTLERVDPLVDNDRYPSHLASFVLAWTRAFVSEWSEFLYEEDRGTPLEDRPLKSVYGDTDSLFVTERGHRLMETRGKKRIKKHGGNLVFDPERPELTWLVECETVCGACGADAYSPESVFLAPKLYALKSLHCPSCGASSKGKLRAKGHAAEGLDYDTMVKCYLADAQGEDRQRFSTSRTSLKRTLASAQPGAHPFTVTQTTLTRTLRPWKDMTLARLDEHRLLPYSESRPNPRNEEICWIEMP
On to B1, for which the estimated mutation rate in data set [7] is on record as ~1.3×10^−7 mutations per base per viral passage.
